From patent publication US20160045505A1, “COMPOUNDS AND COMPOSITIONS FOR THE TREATMENT OF PARASITIC DISEASES” (NOVARTIS AG, priority 2013, published 2016)
Where two headings read alike, the source gives them in different places.

Experiments:
[1] = tested on: Leishmania donovani axenic amastigote parasites; experiment: Leishmania donovani axenic amastigote proliferation assay (Cell TiterGlo luminescence, 2 day incubation); type: cell-based; conditions: read-out: L. donovani amastigotes EC50
[2] = tested on: L. donovani HU3 strain in mouse peritoneal macrophages; experiment: Assay for proliferation of Leishmania parasites in infected mouse peritoneal macrophages (SybrGreen staining, high-content imaging, 5 days); type: cell-based, Leishmania donovani; conditions: L. donovani in mouse peritoneal macrophages, read-out: L. donovani Macrophage EC50
[3] = tested on: Trypanosoma brucei Lister 427 strain, bloodstream form; experiment: Assay for proliferation of kinetoplastid parasite Trypanosoma brucei (Cell Titer Glo, 48 hours); type: cell-based
In short: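 Bloodstream-form T. brucei Lister 427 in HMI-9 medium was exposed to compound (DMSO vehicle) for 48 hours at 37° C, 5% CO2. Parasite growth was read as ATP by CellTiter-Glo luminescence, with EC50 calculated from percent inhibition.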

[4] = tested on: Trypanosoma cruzi amastigotes (Tulahuen strain expressing Lac-Z) cultured in 3T3 fibroblast cells; experiment: microbe, parasite or virus in culture; type: cell-based; conditions: T. cruzi amastigotes in 3T3 fibroblast cells, read-out: T cruzi EC50
[5] = Leishmania donovani, axenic amastigotes, inhibition of proliferation
[6] = Leishmania donovani, Peritoneal macrophage, inhibition of proliferation
[7] = Trypanosoma cruzi, TULAHUEN, Fibroblast, inhibition of proliferation
[8] = Leishmania donovani, L. donovani axenic amastigotes
[9] = Leishmania donovani, Peritoneal macrophage
[10] = Trypanosoma brucei, T. brucei Lister 427 bloodstream form, read-out: T. brucei EC50
[11] = Trypanosoma cruzi, TULAHUEN, Fibroblast
[12] = Trypanosoma brucei, T. brucei Lister 427 bloodstream form, inhibition of proliferation, read-out: T. brucei EC50

| SMILES | EC50 [1, 5] [nM] | EC50 [2, 6] [nM] | EC50 [4, 7] [nM] | EC50 [1, 8] [nM] | EC50 [2, 9] [nM] | EC50 [3, 10] [µM] | EC50 [4, 11] [nM] | EC50 [3, 12] [µM] | also measured |
| --- | --- | --- | --- | --- | --- | --- | --- | --- | --- |
| CC(C)CN(C)C(=O)Nc1ccc(Cl)c(-c2cn3cc(NC(=O)OC(C)C)cnc3n2)c1 [Compound 249] | 3370 | 5550 | 1340 | – | – | – | – | – | EC50 ([3]; Trypanosoma brucei, read-out: T. brucei EC50): 4.07 µM |
| Cc1nc(C)c(C(=O)Nc2ccc(F)c(-c3cn4cc(-c5ccc(CCN(C)C)cc5)cnc4n3)c2)o1 [Compound 450] | – | – | – | 4620 | 2990 | 0.499 | 397 | – | – |
| CC(C)(C)OC(=O)N1CCC(Oc2ccc(-c3cnc4nc(-c5cc(NC(=O)N6CCCC6)ccc5Cl)cn4c3)cc2)CC1 [Compound 345] | 251 | 955 | 408 | – | – | – | – | 0.527 | – |
| CC(C)OC(=O)Nc1cnc2nc(-c3cc(-n4cn[nH]c4=O)ccc3Cl)cn2c1 [Compound 535] | – | – | – | > 25000 | > 35500 | 31.1 | > 20000 | – | – |
| Cc1cc(C(=O)Nc2ccc(F)c(-c3cn4cc(NC(=O)OC(C)C)cnc4n3)c2)on1 [Compound 112] | 2100 | 16600 | 1270 | – | – | – | – | 1.09 | – |
| [2H]C([2H])([2H])N(C(=O)Nc1ccc(F)c(-c2cn3cc(C4CC4)cnc3n2)c1)C([2H])([2H])[2H] [Compound 606] | – | – | – | 545 | 3200 | 0.267 | 380 | – | – |
| O=C(Nc1ccc(F)c(-c2cn3cc(C(F)(F)F)cnc3n2)c1)N1CC[C@H](F)C1 [Compound 297] | 52 | 223 | 37 | – | – | – | – | 0.051 | – |
| Cc1nc(C)c(C(=O)Nc2ccc(F)c(-c3cn4cc(-c5nccn5C)cnc4n3)c2)o1 [Compound 427] | – | – | – | 237 | 438 | 0.163 | 1330 | – | – |
| CC(C)c1cnc2nc(-c3cc(NC(=O)N(C)C)ccc3F)cn2c1 [Compound 417] | – | – | – | 250 | 1300 | 0.145 | 135 | – | – |
| CN(C)C(=O)Nc1ccc(F)c(-c2cn3cc(F)cnc3n2)c1 [Compound 230] | 2730 | 11700 | 1310 | – | – | – | – | 0.323 | – |
| CC(C)OC(=O)Nc1cnc2nc(-c3cc(NC4=NCCO4)ccc3F)cn2c1 [Compound 499] | – | – | – | > 25000 | 8260 | 4.67 | 9420 | – | – |
| O=C(Nc1ccc(F)c(-c2cn3cc(NC(=O)C4(O)CC4)cnc3n2)c1)N1CCCC1 [Compound 140] | 1270 | 8380 | > 17600 | – | – | – | – | 0.378 | – |
| O=C(Nc1ccc(Cl)c(-c2cn3cc(N4CCCC4)cnc3n2)c1)N1CCCC1 [Compound 495] | – | – | – | 235 | 233 | 0.036 | 55 | – | – |
| O=C(Nc1ccc(Cl)c(-c2cn3cc(-c4ccccn4)cnc3n2)c1)N1CCCC1 [Compound 456, N-(4-chloro-3-(6-(pyridin-2-yl)imidazo[1,2-a]pyrimidin-2-yl)phenyl)pyrrolidine-1-carboxamide] | – | – | – | 42 | 218 | – | 40 | – | EC50 ([3]; Trypanosoma brucei, read-out: T. brucei EC50 (μM)): 0.054 µM |
| Cc1nc(C)c(C(=O)Nc2ccc(F)c(-c3cn4cc(C5=CC(C)(C)OC(C)(C)C5)cnc4n3)c2)o1 [Compound 379] | – | – | – | 528 | 1680 | 1.43 | 683 | – | – |
| COCCOC(=O)Nc1cnc2nc(-c3cc(NC(=O)N4CCCC4)ccc3F)cn2c1 [Compound 313] | 761 | > 50000 | 13300 | – | – | – | – | 0.502 | – |
| Cc1nc(C)c(C(=O)Nc2ccc(F)c(-c3cn4cc(OCc5ccccn5)cnc4n3)c2)o1 [Compound 611] | – | – | – | 645 | 1550 | 0.611 | 1130 | – | – |
| Cc1nc(C)c(C(=O)Nc2ccc(F)c(-c3cn4cc(-c5ncc(F)cc5F)cnc4n3)c2)o1 [Compound 447] | – | – | – | 36 | 1380 | 0.103 | 20 | – | – |
| CC(C)OC(=O)Nc1cnc2nc(-c3cc(NC(=O)N(C)CC(F)(F)F)ccc3F)cn2c1 [Compound 222] | 109 | 424 | 419 | – | – | – | – | 0.067 | – |
| Cc1nc(C)c(C(=O)Nc2ccc(F)c(-c3cn4cc(NC(=O)[C@@H]5[C@@H]6CCC(O6)[C@@H]5N)cnc4n3)c2)o1 [Compound 157] | > 25000 | > 50000 | > 20000 | – | – | – | – | 31.3 | – |

| SMILES | EC50 [1, 5] [nM] | EC50 [2, 6] [nM] | EC50 [4, 7] [nM] | EC50 [1, 8] [nM] | EC50 [2, 9] [nM] | EC50 [3, 10] [µM] | EC50 [4, 11] [nM] | EC50 [3, 12] [µM] | also measured |
| --- | --- | --- | --- | --- | --- | --- | --- | --- | --- |
| Cc1nc(C)c(C(=O)Nc2ccc(F)c(-c3cn4cc(C(C)c5ccccc5)cnc4n3)c2)o1 (stereo not shown) [Compound 420] | – | – | – | 830 | 1090 | 0.52 | 307 | – | – |
| Cn1ccnc1C(=O)Nc1cnc2nc(-c3cc(NC(=O)N4CCCC4)ccc3F)cn2c1 [Compound 144] | 555 | > 50000 | > 20000 | – | – | – | – | 0.164 | – |
| Cc1nc(C)c(C(=O)Nc2ccc(F)c(-c3cn4cc(NC(=O)c5nc(N)cn5C)cnc4n3)c2)o1 [Compound 178] | 6710 | > 42500 | > 20000 | – | – | – | – | 2.97 | – |
| O=C(Nc1cccc(-c2cn3cc(-c4ccccc4)cnc3n2)c1)N1CC[C@@H](F)C1 [Compound 337] | 72 | 195 | 68 | – | – | – | – | 0.024 | – |
| Cc1nc(C)c(C(=O)Nc2ccc(F)c(-c3cn4cc(-c5ccc(F)nc5)cnc4n3)c2)o1 [Compound 436] | – | – | – | 77 | 1720 | 0.072 | 50 | – | – |
| Cc1cnc(-c2cnc3nc(-c4cc(NC(=O)c5oc(C)nc5C)ccc4F)cn3c2)cn1 [Compound 452] | – | – | – | 19 | 61 | 0.097 | 45 | – | – |
| O=C(Nc1ccc(F)c(-c2cn3cc(-c4cccnc4)cnc3n2)c1)N1CC(F)(F)C1 [Compound 402] | – | – | – | 69 | 285 | 0.011 | 251 | – | – |
| CC(C)OC(=O)Nc1cnc2nc(-c3cc(NC(=O)N4CC[C@@H](O)C4)ccc3Cl)cn2c1 [Compound 286] | > 19700 | > 50000 | > 20000 | – | – | – | – | 29.7 | – |
| CCC(=O)Nc1ccc(Cl)c(-c2cn3cc(NC(=O)OC(C)C)cnc3n2)c1 [Compound 247] | 740 | 3250 | 575 | – | – | – | – | 0.367 | – |
| O=C(Nc1ccc(F)c(-c2cn3cc(C(F)(F)F)cnc3n2)c1)N1CC(F)(F)C1 [Compound 300] | 90 | 397 | 148 | – | – | – | – | 0.155 | – |
| Cc1ccc(-c2cnc3nc(-c4cc(NC(=O)c5oc(C)nc5C)ccc4F)cn3c2)cn1 [Compound 441] | – | – | – | 97 | 912 | 0.309 | 141 | – | – |
| CCC(C)Nc1cnc2nc(-c3cc(NC(=O)c4oc(C)nc4C)ccc3F)cn2c1 (stereo not shown) [Compound 464] | – | – | – | 470 | 672 | 0.109 | 148 | – | – |
| Cc1nc(C)c(C(=O)Nc2ccc(F)c(-c3cn4cc(NC(=O)C5COCCO5)cnc4n3)c2)o1 (stereo not shown) [Compound 113] | 257 | 502 | 2990 | – | – | – | – | 0.452 | – |
| Cc1nc(C)c(C(=O)Nc2ccc(F)c(-c3cn4cc(NC(=O)C5CCCCO5)cnc4n3)c2)o1 (single isomer, unassigned) [Compound 185] | – | – | – | – | – | – | – | – | EC50 ([1]; axenic amastigotes, inhibition of proliferation): 462 nM; EC50 ([2]; inhibition of proliferation): 1140 nM; EC50 ([3]; T. brucei Lister 427 bloodstream form, inhibition of proliferation, read-out: T. brucei EC50): 0.954 µM; EC50 ([4]; inhibition of proliferation): 1070 nM |
| Cc1nc(C)c(C(=O)Nc2ccc(F)c(-c3cn4cc(NC(=O)[C@@H]5CCCO5)cnc4n3)c2)o1 [Compound 161] | 206 | 655 | 2540 | – | – | – | – | 0.17 | – |
| O=C(Nc1cnc2nc(-c3cc(NC(=O)N4CCCC4)ccc3F)cn2c1)C1COCCO1 (stereo not shown) [Compound 143] | 478 | 1400 | 7910 | – | – | – | – | 0.159 | – |
| Cc1nc(C)c(C(=O)Nc2ccc(F)c(-c3cn4cc(C5CCNCC5)cnc4n3)c2)o1 [Compound 538, N-(4-fluoro-3-(6-(piperidin-4-yl)imidazo[1,2-a]pyrimidin-2-yl)phenyl)-2,4-dimethyloxazole-5-carboxamide] | – | – | – | 2360 | 1860 | 0.613 | 447 | – | – |
| CC(C)OC(=O)Nc1cnc2nc(-c3cc(NC(=O)c4nccs4)ccc3Cl)cn2c1 [Compound 243] | 780 | 2610 | 150 | – | – | – | – | 0.369 | – |
| Cc1nc(C)c(C(=O)Nc2ccc(F)c(-c3cn4cc(OC(C)C)cnc4n3)c2)o1 [Compound 608, N-(4-fluoro-3-(6-isopropoxyimidazo[1,2-a]pyrimidin-2-yl)phenyl)-2,4-dimethyloxazole-5-carboxamide] | – | – | – | 127 | 456 | 0.159 | 132 | – | – |
| CC(C)OC(=O)Nc1cnc2nc(-c3cc(NC4=NCC(C)O4)ccc3F)cn2c1 (stereo not shown) [Compound 501] | – | – | – | > 25000 | > 50000 | 3.14 | 10500 | – | – |
